Measurements taken from US20080280879A1, “SUBSTITUTED HETEROCYCLIC DERIVATIVES AND THEIR PHARMACEUTICAL USE AND COMPOSITIONS” (priority 2007, published 2008).
Converted amounts (≈) assume the structure as drawn.

What was measured:
Type in all cases: cell-based, Staphylococcus aureus
Staph aureus 2811 = test: MIC, microtiter broth dilution (CLSI M7-A7), Assay 1, Table 12 column D, no serum; settings: for MIC, column D: Staph aureus 2811, Assay 1, no serum; for MIC: Staphylococcus aureus, 2811, Staph aureus 2811, Assay 1, no serum
Protocol: (§1) The assays described herein include a panel of bacterial isolates of Staphylococcus aureus. Assay 1 comprises the strains noted in Columns A through E, and Assay 2 comprises the strains noted in Columns F through H. The assays are performed in microtiter trays according to Methods for Dilution Antimicrobial Susceptibility Tests for Bacteria that Grow Aerobically; Approved Standard-7th edition (M7-A7) and interpreted according to the Performance Standards for Antimicrobial Susceptibility Testing; 16th Informational Supplement (M100-S16) published by Clinical Laboratory Standards Institute (CLSI). The antibacterial activity is presented in the form of a minimum inhibitory concentration (MIC) value in μg/ml format. The MIC value represents the lowest concentration of drug measured which prevented macroscopically visible growth under the conditions and specific doses tested. The compounds were initially dissolved in DMSO as 30 mM stocks and diluted accordingly to adjust to a concentration of 10 mg/ml or the compounds were dissolved in DMSO at a concentration of 10 mg/ml. For assessment of activity in the presence of human serum, S. aureus 1146 and S. aureus 1031 were inoculated into Mueller-Hinton Broth with 50% pooled inactivated human serum. In some cases, compounds were tested more than once in a particular assay. Where noted, the MIC value shown in Table 12 represents the geometric mean of the data from multiple runs.
(§2) It should be understood that the data in columns A-H represents MIC data in μg/ml and the notation “<=” means ‘less than or equal to’.

Staph aureus 1146 [1] = test: MIC in Mueller-Hinton Broth with 50% pooled inactivated human serum, Assay 1, Table 12; settings: for MIC, column C: Staph aureus 1146, Assay 1, 50% human serum; for MIC: Staphylococcus aureus, 1146, Staph aureus 1146, Assay 1, 50% human serum, read-out: MIC, column C
Protocol: as §1, §2

Staph aureus 1146 [2] = test: MIC, microtiter broth dilution (CLSI M7-A7), Assay 1, Table 12 column B, no serum; settings: for MIC, column B: Staph aureus 1146, Assay 1, no serum; for MIC: Staphylococcus aureus, 1146, Staph aureus 1146, Assay 1, no serum
Protocol: as §1, §2

Staph aureus 1095 MRSA = test: MIC, microtiter broth dilution (CLSI M7-A7), Assay 1, Table 12 column A, no serum; settings: Assay 1, no serum; for MIC: Staphylococcus aureus, MRSA
Protocol: as §1, §2

Staph aureus 2812 = test: MIC, microtiter broth dilution (CLSI M7-A7), Assay 1, Table 12 column E, no serum; settings: for MIC, column E: Staph aureus 2812, Assay 1, no serum; for MIC: Staphylococcus aureus, 2812, Staph aureus 2812, Assay 1, no serum
Protocol: as §1, §2

Compound | MIC, column D (Staph aureus 2811) | MIC, column C (Staph aureus 1146 [1]) | MIC, column B (Staph aureus 1146 [2]) | MIC, column A (Staph aureus 1095 MRSA) | MIC, column E (Staph aureus 2812) | MIC (Staph aureus 2811) [µg/mL] | MIC (Staph aureus 1146 [1]) [µg/mL] | MIC (Staph aureus 1146 [2]) [µg/mL] | MIC (Staph aureus 1095 MRSA) [µg/mL] | MIC (Staph aureus 2812) [µg/mL]
3-{[2-(3-chloro-6-methoxyquinolin-4-yl)ethyl]amino}-1-(cis-3-phenylcyclobutyl)pyrrolidine-3-carboxylic acid [Example 113] | 0.125 µg/mL | 16 µg/mL | <=.0625 μg/ml | 0.125 µg/mL | 0.25 µg/mL |  |  |  |  | 
3-{[2-(3-chloro-8-methoxyquinolin-4-yl)ethyl]amino}-1-(trans-3-phenylcyclobutyl)pyrrolidine-3-carboxylic acid [Example 114] | 0.5 µg/mL | >64 µg/mL | 0.5 µg/mL | 1 µg/mL | 0.5 µg/mL |  |  |  |  | 
COc1ccc2ncc(F)c(C(O)CC[C@@H]3CCN(C4CC(c5ccccc5)C4)C[C@@H]3C(=O)O)c2c1 (mixture of isomers) [Example 14, (3R,4R)-4-[3-(3-fluoro-6-methoxyquinolin-4-yl)-3-hydroxypropyl]-1-(3-phenylcyclobutyl)piperidine-3-carboxylic acid] |  |  |  |  |  | ≤ 0.0947 | ≤ 0.379 | 0.158 | ≤ 0.0947 | ≤ 0.0947
COc1ccc2nccc(C(O)CC[C@@H]3CCN(C4CC(O)(c5ccccc5)C4)C[C@@H]3C(=O)O)c2c1 (mixture of isomers) [Example 95, (3R,4R)-4-[3-hydroxy-3-(6-methoxyquinolin-4-yl)propyl]-1-(3-hydroxy-3-phenylcyclobutyl)piperidine-3-carboxcylic acid] | >64 µg/mL | >64 µg/mL | 16 µg/mL | >64 µg/mL | >64 µg/mL |  |  |  |  | 
COc1ccc2nccc(C(O)CC[C@@H]3CCN(C4CC(O)(c5ccccc5)C4)C[C@@H]3C(=O)O)c2c1 (mixture of isomers) [Example 96, (3R,4R)-4-[3-hydroxy-3-(6-methoxyquinolin-4-yl)propyl]-1-(3-hydroxy-3-phenylcyclobutyl)piperidine-3-carboxcylic acid] | >64 µg/mL | >64 µg/mL | 8 µg/mL | >64 µg/mL | >64 µg/mL |  |  |  |  | 
COc1ccc2nccc(C(O)CC[C@@H]3CCN(CC4CC(c5ccccc5)C4)C[C@@H]3C(=O)O)c2c1 (mixture of isomers) [Example 177, (3R,4R)-4-[3-hydroxy-3-(6-methoxyquinolin-4-yl)propyl]-1-[(3-phenylcyclobutyl)methyl]piperidine-3-carboxylic acid] |  |  |  |  |  | 4 | 32 | 4 | 8 | 8
O=C(O)[C@H]1CN(C2CC(c3cc(F)ccc3F)C2)CC[C@H]1CCC(O)c1c(F)cnc2ccc(O)nc12 (mixture of isomers) [Example 206, (3R,4R)-1-[3-(2,5-difluorophenyl)cyclobutyl]-4-[3-(3-fluoro-6-hydroxy-1,5-naphthyridin-4-yl)-3-hydroxypropyl]piperidine-3-carboxylic acid] |  |  |  |  |  | 2 | 16 | 2 | 4 | 4
COc1ccc2nccc(C(O)CCC3CCN(C[C@@H]4C[C@H]4c4ccccc4)CC3C(=O)O)c2c1 (relative stereo) [Example 25, 4-[3-hydroxy-3-(6-methoxyquinolin-4-yl)propyl]-1-{[(trans)-2-phenylcyclopropyl]methyl}piperidine-3-carboxylic acid] |  |  |  |  |  | 1 (≈ 2.11 µM) | 4 (≈ 8.43 µM) | 2 (≈ 4.21 µM) | 2 (≈ 4.21 µM) | 1 (≈ 2.11 µM)
COc1ccc2nccc(C(O)CCC3CCN(C[C@@H]4C[C@H]4c4cc(F)ccc4F)CC3C(=O)O)c2c1 (relative stereo) [Example 26, 1-{[(trans)-2-(2,5-difluorophenyl)cyclopropyl]methyl}-4-[3-hydroxy-3-(6-methoxyquinolin-4-yl)propyl] piperidine-3-carboxylic acid] |  |  |  |  |  | 0.25 (≈ 0.49 µM) | 4 (≈ 7.83 µM) | 0.25 (≈ 0.49 µM) | 1 (≈ 1.96 µM) | 0.25 (≈ 0.49 µM)
COc1ccc2ncc(F)c(C(O)CC[C@@H]3CCN(C4CC(c5ccccc5)C4)C[C@@H]3C(=O)O)c2c1 (single isomer, unassigned) [Example 15] |  | 0.25 µg/mL (≈ 0.508 µM) | 0.0156 µg/mL (≈ 0.0317 µM) |  | 0.03125 µg/mL (≈ 0.0634 µM) | 0.0625 (≈ 0.127 µM) |  |  | 0.0884 (≈ 0.179 µM) | 
COc1ccc2ncc(F)c(C(O)CC[C@@H]3CCN(C4CC(c5ccccc5)C4)C[C@@H]3C(=O)O)c2c1 (single isomer, unassigned) [Example 16] | 0.125 µg/mL (≈ 0.254 µM) | 1 µg/mL (≈ 2.03 µM) | <=.0884 μg/ml | 0.125 µg/mL (≈ 0.254 µM) | 0.125 µg/mL (≈ 0.254 µM) |  |  |  |  | 
COc1ccc2ncc(F)c(C(O)CC[C@@H]3CCN(C4CC(c5c(F)cccc5F)C4)C[C@@H]3C(=O)O)c2c1 (single isomer, unassigned) [Example 18] |  |  |  |  |  | ≤ 0.0625 | 0.25 (≈ 0.473 µM) | ≤ 0.0625 | ≤ 0.0625 | ≤ 0.0625
COc1ccc2ncc(F)c(C(O)CC[C@@H]3CCN(C4CC(c5c(F)cccc5F)C4)C[C@@H]3C(=O)O)c2c1 (single isomer, unassigned) [Example 19] | <=.0625 μg/ml | 0.5 µg/mL (≈ 0.946 µM) | <=.0625 μg/ml | <=.0625 μg/ml | <=.0625 μg/ml |  |  |  |  | 
COc1ccc2nccc(C(O)CC[C@@H]3CCN(C4CC(c5c(F)cccc5F)C4)C[C@@H]3C(=O)O)c2c1 (single isomer, unassigned) [Example 27] |  |  |  |  |  | ≤ 0.0625 | 0.353 (≈ 0.692 µM) | ≤ 0.125 | ≤ 0.0625 | ≤ 0.0625
COc1ccc2ncc(F)c(C(O)CC[C@@H]3CCN(C4CC(c5cc(F)ccc5F)C4)C[C@@H]3C(=O)O)c2c1 (single isomer, unassigned) [Example 59] |  | <=.0625 μg/ml |  |  |  | ≤ 0.0625 |  | ≤ 0.0625 | ≤ 0.0625 | ≤ 0.0625
COc1ccc2ncc(F)c(C(O)CC[C@@H]3CCN(C4CC(c5cc(F)ccc5F)C4)C[C@@H]3C(=O)O)c2c1 (single isomer, unassigned) [Example 60] | <=.0625 μg/ml | 4 µg/mL (≈ 7.57 µM) | <=.0625 μg/ml | 0.125 µg/mL (≈ 0.236 µM) | <=.0625 μg/ml |  |  |  |  | 
COc1ccc2ncc(Cl)c([C@@H](O)CNC3(C(=O)O)CCCN(C4CC(c5ccccc5)C4)CC3)c2c1 (single isomer, unassigned) [Example 147] |  |  |  |  |  | 1 (≈ 1.91 µM) | 4 (≈ 7.63 µM) | 1 (≈ 1.91 µM) | 8 (≈ 15.3 µM) | 1 (≈ 1.91 µM)
COc1ccc2ncc(Cl)c([C@@H](O)CNC3(C(=O)O)CCCN(C4CC(c5ccccc5)C4)CC3)c2c1 (single isomer, unassigned) [Example 148] | 1 µg/mL (≈ 1.91 µM) | 4 µg/mL (≈ 7.63 µM) | 1 µg/mL (≈ 1.91 µM) | 4 µg/mL (≈ 7.63 µM) | 1 µg/mL (≈ 1.91 µM) |  |  |  |  | 
COc1ccc2ncc(F)c([C@@H](O)CNC3(C(=O)O)CCCN(C4CC(c5ccccc5)C4)CC3)c2c1 (single isomer, unassigned) [Example 149] |  |  |  |  |  | 2 (≈ 3.94 µM) | 4 (≈ 7.88 µM) | 2 (≈ 3.94 µM) | 8 (≈ 15.8 µM) | 2 (≈ 3.94 µM)
COc1ccc2nccc(C(O)CC[C@@H]3CCN(C4CC(c5cccc(F)c5F)C4)C[C@@H]3C(=O)O)c2c1 (stereo partly drawn) [Example 58, (3R,4R)-1-[3-(2,3-difluorophenyl)cyclobutyl]-4-[3-hydroxy-3-(6-methoxyquinolin-4-yl)propyl] piperidine-3-carboxylic acid] |  | 2 µg/mL (≈ 3.92 µM) |  |  |  |  |  |  |  | 
COc1ccc2nccc([C@@H](O)CC[C@@H]3CCN(C4CC(c5ccc(-c6ccccc6)cc5)C4)C[C@@H]3C(=O)O)c2c1 (stereo partly drawn) [Example 70, (3R,4R)-1-(3-biphenyl-4-ylcyclobutyl)-4-[(3S)-3-hydroxy-3-(6-methoxyquinolin-4-yl)propyl] piperidine-3-carboxylic acid] |  |  |  | >64 µg/mL |  |  |  |  |  | 
COc1ccc2ncc(F)c(C(O)CC[C@@H]3CCN(C4CC(Sc5cc(F)ccc5F)C4)C[C@@H]3C(=O)O)c2c1 (stereo partly drawn) [Example 229, (3R,4R)-1-[3-(2,5-Difluoro-phenylsulfanyl)-cyclobutyl]-4-[(S)-3-(3-fluoro-6-methoxy-quinolin-4-yl)-3-hydroxy-propyl]-piperidine-3-carboxylic acid] |  |  |  |  |  |  | 32 (≈ 57.1 µM) |  |  | 
